According to US9125881B2, “Monoglyceride of acetoacetate and derivatives for the treatment of neurological disorders” (Accera, Inc., priority 2008, dated 2015):
“Also recorded” adds a separate entry of the source.

Experiments:
[1] = Mouse pharmacokinetic (PK) study: blood ketone bodies after po and ip dosing; type: in vivo; conditions: ICR male mice, single po dose (2.5, 5, 10 ml/kg) or single ip dose (1 g/kg); plasma; as early as 15 minutes
Protocol: The inventor examined the blood levels of ketone bodies after oral (po) and intraperitoneal (ip) dosing of monoacetoacetin at different time points in the mouse.
ICR male mice 6 to 7 weeks old were used. Each mouse weighed between 20-30 grams. Animals were housed 3 per cage and were acclimated for at least 3 days prior to dosing. Mice were given either a single po dose (ranging from 2.5, 5 and 10 ml/kg) of compound, or a single ip dose (1 g/kg). Animals were anesthetized for blood collection at the times 15, 30, 60 and 180 minutes. Whole blood (˜0.4 mls) was collected via cardiac puncture and collected into sodium heparin anticoagulant (Na Heparin, 1:9 ratio). Blood was centrifuged for 8 minutes at 13,000 rpm to isolate plasma. The plasma was transferred into pre-labeled, color-coded eppendorf tubes and frozen at −70° C. […] Plasma levels of beta-hydroxybutyrate (BHB) were determined using a beta-hydroxybutyrate detection kit following manufacturer's directions (StanBio Inc.).

[2] = test system: MPTP lesioned mice; test: Neuroprotective effects in MPTP lesioned mice (mouse model of Parkinson's disease); type: in vivo; conditions: for TH+ neuron density in substantia nigra (mean): 8 day ip MPTP, histology on treatment day 11
Protocol: To test the possible therapeutic potential of AC-0523 a small pilot experiment was performed examining the potential neuroprotective effects of AC-0523 in a mouse model of Parkinson's disease (PD). 1-methyl-4-phenyl-1,2,3,6-tetrahydropyridine (MPTP), blocks complex I (NADH-ubiquinone oxidoreductase) of the mitochondrial electron transport chain, and causes typical symptoms of (PD) and the loss of dopaminergic neurons.
Systemic injection of MPTP, upon conversion to MPP+, produces a loss of nigrostriatal dopamine (DA) nerve terminals and eventual death of […] dopaminergic neurons. This neuropathology mimics conditions in the dopamine denervated striatum of human PD patients, and produces […] and postural instability. Assays for tyrosine hydroxylase (TH), the enzyme responsible for catalyzing the production of dopamine, and quantification of TH-containing cells in the SNc are performed to measure the extent of […] dopaminergic neurodegeneration.
A parallel group design was used. After acclimation in the facility, subjects were tested on the Rotarod and activity tasks. On the second day of test treatment, all subjects began an 8 day ip administration of MPTP or saline. Fifteen minutes before MPTP or saline treatment and 2.75 hours after, subjects received either the test compound or saline. On the first and ninth treatment day blood draws were taken for subsequent monitoring of β-hydroxybutyrate. On treatment day 11 all subjects were euthanized and histology was preformed on a small number of test animals.

[3] = MPTP-treated mice, listed as AC-0523

## CC(=O)CC(=O)OCC(O)CO (stereo not drawn) [Monoacetoacetin, 2,3-dihydroxypropyl 3-oxobutanoate]
[1]
  circulating BHB levels: significant increases
[2]
  TH-positive cell counts in the SNc versus MPTP-treated mice who received only saline or AC-1202: higher
[2]; MPTP-treated mice
  density of TH in the caudate-putamen: highest
[2]; MPTP-treated mice, listed as AC0523
  TH+ neuron density in substantia nigra (mean): 111.000
[2]; [3]
  TH+ neuron density in substantia nigra (mean): 111±20
  protection of tyrosine hydroxylase (TH) expressing cells from MPTP toxicity / neuroprotection: protected tyrosine hydroxylase (TH) expressing cells from MPTP toxicity; also recorded: neuroprotective
